Patent US11230526B1, “Cylcoalkenyl derivatives useful as agonists of the GPR120 and/or GPR40 receptors” (Janssen Pharmaceutica NV, priority 2018, dated 2022)
pEC50: −log10 of the molar value.

Columns and labels:
Assay type in all cases: cell-based
human GPR40 = target: T1, human GPR40 (Homo sapiens, UniProt O14842); experiment: GPR40 calcium flux assay, human GPR40; details: HEK293 cells stably expressing GPR40; table does not say human or rat
T1 construct: expressed in transfected cells
How it was run: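 Cells preincubated 1 h at 37° C. in HBSS, 20 mM HEPES, 0.1% BSA, then Fluo 8 calcium dye 30 min at 37° C. and 15 min at room temperature.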

Human GPR120 short form [1] = target: T2, Human GPR120 short form (Homo sapiens, UniProt Q5NUL3); experiment: Human GPR120 calcium flux assay, Procedure Calcium B (4200 cells/well)
T2 construct: expressed in transfected cells
T2 sequence (Q5NUL3 1-361): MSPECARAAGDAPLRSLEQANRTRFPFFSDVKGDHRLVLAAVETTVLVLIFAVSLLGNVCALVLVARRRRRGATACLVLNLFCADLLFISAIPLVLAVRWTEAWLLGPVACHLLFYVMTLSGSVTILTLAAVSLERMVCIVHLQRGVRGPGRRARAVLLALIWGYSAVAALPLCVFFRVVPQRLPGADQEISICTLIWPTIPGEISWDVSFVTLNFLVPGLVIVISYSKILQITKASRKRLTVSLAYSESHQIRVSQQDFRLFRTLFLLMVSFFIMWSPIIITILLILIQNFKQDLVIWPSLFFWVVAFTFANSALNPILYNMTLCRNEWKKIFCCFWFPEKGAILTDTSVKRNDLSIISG
How it was run: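 HEK293 cells stably expressing human GPR120 (NM_001195755.1), 4200 cells/well, starved 1 h and loaded with Fluo-4 NW plus probenecid. Ligand-evoked calcium flux read on FLIPR for 300 s after a 10 s baseline. RFU = Fmax−Fmin; EC50 from four-parameter concentration-response fit.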

Human GPR120 short form [2] = target: T2, Human GPR120 short form; experiment: Human GPR120 calcium flux assay, Procedure Calcium A (2500 cells/well)
Description: Human GPR120 in Calcium Flux Assay
This in vitro assay serves to assess test compound agonist activity against the short splice variant (SVS with Accession number NM_001195755.1 confirmed by sequencing data) of the GPR120 receptor. The Human Short splice variant #2 (NM_001195755.1) is missing an in-frame coding exon compared to variant 1 (the Human Long splice variant NM_181745.3), resulting in a shorter isoform (GPR120-S) lacking a 16 aa protein segment compared to isoform GPR120-L. The assay platform utilizes HEK-293 cells stably transfected to express the Human GPR120 short form. These cells are first loaded with the Ca^+2 sensitive dye, Fluo-4 NW. Upon stimulation, intracellular released Ca^+2 can bind to the dye and alter its fluorescence intensity. This increase in fluorescence signal, and thus the flux in intracellular [Ca^2+], is detected and quantitated by fluorescence imaging using a FLIPR reader. The effect of the agonist is measured as a function of concentration and used to calculate an EC50 based upon a response curve.
In this procedure 2500 cells/well were employed.
A Human GPR120 clone (Genbank accession number NM_001195755.1) was placed into the pcDNA3.1 mammalian expression vector carrying the neomycin resistance gene. A stable mammalian cell was generated by placing the above clone into a HEK293 background. Clonal cells responding to long chain fatty acids had expression levels of GPR120 confirmed by RT-qPCR. Human HEK-GPR120 cells were cultured in Dulbecco's Modified Eagle's Medium (DMEM)/F12 medium supplemented with 10% fetal bovine serum (FBS), 1% L-Glutamine and 1% penicillin/streptomycin and 0.5 mg/ml G-418. Cells were split 2 times a week to keep the cells in the log-phase growth.
In preparation for the assay, HEK cells stably transfected with Human GPR120 (2.5K cells per well in 25 uL growth medium) were seeded into 384-well plates and then incubated overnight (37° C., 5% CO2). The next day, the media was changed to 20 μL assay buffer and the cell starved for 1 h at 37° C. The dye loading solution (2× dye) was prepared using 10 mL assay buffer, 100 μL of 250 mM probenecid, 1 bottle of Component A, and 20 μl of dye in DMSO. Twenty μL of the 2× dye loading buffer was then added to each well. The plates were incubated at 37° C. for 30 min, then at room temperature for an additional 15 minutes, before performing the assay on FLIPR.
The assay was performed on a FLIPR plate reader using the following parameters. Baseline was read for 10 seconds at 1 sec intervals. The program was set to transfer 10 μL of ligand from compound plate to cell plate after baseline reading. Aspiration was executed at: 10 μL/sec speed, 4.6 μL height, Dispensing was executed at: 30 μL/sec speed, 45 μL height. After compound addition, each well was read for 300 sec, with measurements collected at 1 sec intervals.
The kinetic data from the FLIPR was based upon a 5 minute window for data collection. The fluorescence of each sample well was used for individual calculations of a normalized RFU value, which was defined as maximum response minus the minimum response. The normalized fluorescence reading (RFU) was calculated as follows: RFU=Fmax−Fmin
The Fitting Equation was: Y=Bottom+(Top-Bottom)/(1+10^((Log EC50−X)*HillSlope)), where X is the log of the concentration and Y is the response.

T1 sequence (O14842 whole entry): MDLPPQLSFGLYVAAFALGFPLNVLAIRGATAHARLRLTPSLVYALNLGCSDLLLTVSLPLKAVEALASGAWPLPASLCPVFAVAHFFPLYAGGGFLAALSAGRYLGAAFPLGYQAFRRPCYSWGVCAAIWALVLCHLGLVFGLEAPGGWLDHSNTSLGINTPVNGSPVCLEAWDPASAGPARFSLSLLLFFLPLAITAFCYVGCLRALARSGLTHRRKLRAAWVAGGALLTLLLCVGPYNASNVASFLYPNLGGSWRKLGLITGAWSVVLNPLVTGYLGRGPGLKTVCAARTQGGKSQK

Row | pEC50 (human GPR40) | pEC50 (Human GPR120 short form [1]) | pEC50 (Human GPR120 short form [2]) | SMILES
1 | < 5.30 | 6.22 | 5.71 | O=C(O)CCc1ccc(OCC2=C(c3ccccc3)CCC2)cc1 [Compound 19, 3-(4-((2-phenylcyclopent-1-en-1-yl)methoxy)phenyl)Propanoic Acid]
2 | < 5.30 | 5.61 | < 5.30 | Cc1c(CCC(=O)O)ccc(OCC2=C(c3ccc(Cl)cc3)CCC2(O)C(F)(F)F)c1C (centres unmarked) [Compound 69, 3-[4-[[2-(4-chlorophenyl)-5-hydroxy-5-(trifluoromethyl)cyclopenten-1-yl]methoxy]-2,3-dimethyl-phenyl]Propanoic Acid]
3 | < 5.30 | 6.43 | 5.90 | Cc1ccc(C2=C(COc3ccc(CCC(=O)O)c(F)c3F)CCC2)cc1[N+](=O)[O-] [Compound 92, 3-(2,3-difluoro-4-((2-(4-methyl-3-nitrophenyl)cyclopent-1-en-1-yl)methoxy)phenyl)Propanoic Acid]
4 | < 5.30 | 5.51 | 5.61 | Cc1c(CCC(=O)O)ccc(OCC2=C(c3cc(Cl)cc(Cl)c3)CCC2)c1C [Compound 112, 3-[4-[[2-(3,5-dichlorophenyl)cyclopenten-1-yl]methoxy]-2,3-dimethyl-phenyl]Propanoic Acid′]
5 | < 5.30 | – | < 5.30 | Cc1c(CCC(=O)O)ccc(OCC2=C(c3cccc(N(C)C)c3)CCC2)c1C [Compound 114, 3-[4-[[2-[3-(dimethylamino)phenyl]cyclopenten-1-yl]methoxy]-2,3-dimethyl-phenyl]Propanoic Acid]
6 | < 5.30 | 6.07 | 5.95 | Cc1ccc(C2=C(COc3ccc(CCC(=O)O)c(C)c3C)CCC2)cc1[N+](=O)[O-] [Compound 115, 3-(2,3-dimethyl-4-((2-(4-methyl-3-nitrophenyl)cyclopent-1-en-1-yl)methoxy)phenyl)Propanoic Acid]
7 | < 5.30 | 6.49 | 6.05 | Cc1cc(OCC2=C(c3ccc(Cl)cc3)CCC2)cc(C)c1CCC(=O)O [Compound 119, 3-(4-((2-(4-chlorophenyl)cyclopent-1-en-1-yl)methoxy)-2,6-dimethylphenyl)Propanoic Acid]
8 | < 5.30 | 6.18 | 5.56 | Cc1c(CCCC(=O)O)ccc(OCC2=C(c3ccc(Cl)cc3)CCC2)c1C [Compound 127, 4-[4-[[2-(4-chlorophenyl)cyclopenten-1-yl]methoxy]-2,3-dimethyl-phenyl]Butanoic Acid]
9 | < 5.30 | – | < 5.30 | CCCc1ccc(C2=C(COc3ccc(CCC(=O)O)c(C)c3C)CCC2)cc1 [Compound 140, 3-[2,3-dimethyl-4-[[2-(4-propylphenyl)cyclopenten-1-yl]methoxy]phenyl]Propanoic Acid]
10 | < 5.30 | 6.68 | 5.81 | Cc1c(CCC(=O)O)ccc(OCC2=C(c3ccc(C#N)cc3)CCC2)c1C [Compound 146, 3-[4-[[2-(4-cyanophenyl)cyclopenten-1-yl]methoxy]-2,3-dimethyl-phenyl]Propanoic Acid]
11 | < 5.30 | – | < 5.30 | CCOc1ccc(C2=C(COc3ccc(CCC(=O)O)c(C)c3C)CCC2)cc1 [Compound 151, 3-[4-[[2-(4-ethoxyphenyl)cyclopenten-1-yl]methoxy]-2,3-dimethyl-phenyl]Propanoic Acid]
12 | < 5.30 | 7.17 | 7.01 | Cc1c(CCC(=O)O)ccc(OCC2=C(c3ccc(Cl)c(F)c3)CCC2)c1C [Compound 157, 3-(4-((2-(4-chloro-3-fluorophenyl)cyclopent-1-en-1-yl)methoxy)-2,3-dimethylphenyl)Propanoic Acid]
13 | < 5.30 | 5.79 | 5.32 | CCCc1ccc(C2=C(COc3ccc(CCC(=O)O)c(C)c3C)CCCC2)cc1 [Compound 463, 3-[2,3-dimethyl-4-[[2-(4-propylphenyl)cyclohexen-1-yl]methoxy]phenyl]Propanoic Acid]
14 | < 5.30 | 5.84 | 5.66 | Cc1c(CCC(=O)O)ccc(OCC2=C(c3ccncc3)CCCC2)c1C [Compound 465, 3-[2,3-dimethyl-4-[[2-(4-pyridyl)cyclohexen-1-yl]methoxy]phenyl]Propanoic Acid]
15 | < 5.30 | 5.64 | 5.35 | Cc1c(CCC(=O)O)ccc(OCC2=C(c3ncccn3)CCCC2)c1C [Compound 475, 3-[2,3-dimethyl-4-[(2-pyrimidin-2-ylcyclohexen-1-yl)methoxy]phenyl]Propanoic Acid]
16 | < 5.30 | 6.32 | 5.88 | Cc1c(CCC(=O)O)ccc(OCC2=C(c3ccc(I)cc3)CCCC2)c1C [Compound 476, 3-[4-[[2-(4-iodophenyl)cyclohexen-1-yl]methoxy]-2,3-dimethyl-phenyl]Propanoic Acid]
17 | < 5.30 | 6.59 | 5.93 | Cc1ccc(C2=C(COc3ccc(CCC(=O)O)cc3C)CCCC2)cn1 [Compound 477, 3-[3-methyl-4-[[2-(6-methyl-3-pyridyl)cyclohexen-1-yl]methoxy]phenyl]Propanoic Acid]
18 | < 5.30 | 6.13 | 5.66 | Cc1c(CCC(=O)O)ccc(OCC2=C(c3ccccn3)CCCC2)c1C [Compound 490, 3-[2,3-dimethyl-4-[[2-(2-pyridyl)cyclohexen-1-yl]methoxy]phenyl]Propanoic Acid]
19 | < 5.30 | 7.01 | 6.27 | O=C(O)CCc1cc(F)c(OCC2=C(c3ccc(Cl)cc3)CCC(F)(F)C2)c(F)c1 [Compound 491, 3-[4-[[2-(4-chlorophenyl)-5,5-difluoro-cyclohexen-1-yl]methoxy]-3,5-difluoro-phenyl]Propanoic Acid]
20 | < 5.30 | – | < 5.30 | CC(=O)Nc1ccc(C2=C(COc3ccc(CCC(=O)O)c(C)c3C)CCCC2)cc1 [Compound 495, 3-[4-[[2-(4-acetamidophenyl)cyclohexen-1-yl]methoxy]-2,3-dimethyl-phenyl]Propanoic Acid]
21 | < 5.00 | – | < 5.30 | Cc1c(CCC(=O)O)ccc(OCC2=C(c3ccc([S+](C)[O-])cc3)CCCC2)c1C (centres unmarked) [Compound 507, 3-[2,3-dimethyl-4-[[2-(4-methylsulfinylphenyl)cyclohexen-1-yl]methoxy]phenyl]Propanoic Acid]
22 | < 5.30 | – | < 5.30 | Cc1c(CCC(=O)O)ccc(OCC2=C(c3ccc(S(C)(=O)=O)cc3)CCCC2)c1C [Compound 515, 3-[2,3-dimethyl-4-[[2-(4-methylsulfonylphenyl)cyclohexen-1-yl]methoxy]phenyl]Propanoic Acid]
23 | < 5.30 | – | < 5.30 | O=C(O)CCc1ccc(OCC2=C(c3ccc(Cl)cc3)CCCC2)cc1 [Compound 517, 3-[4-[[2-(4-chlorophenyl)cyclohexen-1-yl]methoxy]phenyl]Propanoic Acid]
